US5236815A, “Class of masked stabilizers in photographic materials or developing solutions” (priority 1991, dated 1993)
Structures can show the parent of a compound that is named as a salt. Where two headings read alike, the source gives them in different places.

Legend:
[1] = for solubility at room temperature: water
[2] = alcoholic solution of 5-nitroindazole vs aqueous solution of I-2; in words
Description: A control composition (A) containing 100 g of inert gelatin in 1600 ml of water was prepared. The solution further contained matting agents and anti-halo dyes. In a second control composition (8) 300 ml of water was replaced by 300 ml of a 1% alcoholic solution of 5-nitroindazole. […] In each sample pH was adjusted to 6.5.

[3] = format: physicochemical; details: pH 11.5
Description: To said basic composition were added 0.46 mmole/l of water soluble 5-nitroindazole precursors according to the invention as specified in table 1 below. In a comparison developer 0.46 mmole of 5-nitroindazole (5-NI) was added per liter. […] Therefore a second comparison developer sample was included in which 5-nitroindazole was first dissolved in 30 ml of N-methyl-pyrrolidone (part B) and then added to the solution, replacing 30 ml of water. In each sample the pH was readjusted to 11.5 with sodium hydroxide.

SMILES | instability problems in gelatineous compositions [2] | solubility at room temperature [1] | other results
O=C(c1ccccc1S(=O)(=O)[O-])n1ncc2cc([N+](=O)[O-])ccc21.[K+] | can be overcome |  | solubility at room temperature ([1]; room temperature): 1.7 g/100 ml
Cc1ccc2[nH]nnc2c1 [5-methylbenzotriazole] |  |  | solubility in water ([1]; background section, no temperature given): 0.5 g/100 ml of water
O=[N+]([O-])c1ccc2[nH]ncc2c1 [5-nitroindazole] | instability problems |  | solubility in water [1]: 0.02 g/100 ml of water; solubility in developer solution [3]: only slightly soluble
O=C(c1ccccc1S(=O)(=O)O)n1nnc2ccccc21 [Compound I-3, 1-(2-sulphonatobenzoyl)-benzotriazole triethylamine salt] |  | 5.8 g/100 ml | 
c1ccc2[nH]nnc2c1 [benzotriazole] |  | 1.3 g/100 ml | 
